Data taken from ChEMBL document CHEMBL3621124, “Synthesis, cytotoxicity and inhibition of NO production of ivangustin enantiomer analogues” (Eur J Med Chem, 2015).

How the values were obtained:
[1] = tested on: HCT-116; assay: Cytotoxicity against human HCT116 cells assessed as growth inhibition incubated for 72 hrs by MTT assay; assay type: functional, cell-based; settings: HCT-116, 72 h
[2] = tested on: HL-60; assay: Cytotoxicity against human HL60 cells assessed as growth inhibition incubated for 72 hrs by CCK8 assay; assay type: functional, cell-based; settings: HL-60, 72 h
[3] = Cytotoxicity against human QGY7701 cells assessed as growth inhibition incubated for 72 hrs by MTT assay; assay type: functional, cell-based; settings: QGY7701, 72 h
[4] = tested on: SMMC-7721; assay: Cytotoxicity against human SMMC7721 cells assessed as growth inhibition incubated for 72 hrs by MTT assay; assay type: functional, cell-based; settings: SMMC-7721, 72 h
[5] = tested on: A549; assay: Cytotoxicity against human A549 cells assessed as growth inhibition incubated for 72 hrs by MTT assay; assay type: functional, cell-based; settings: A549, 72 h
[6] = tested on: MCF7; assay: Cytotoxicity against human MCF7 cells assessed as growth inhibition incubated for 72 hrs by MTT assay; assay type: functional, cell-based; settings: MCF7, 72 h
[7] = tested on: RAW264.7; assay: Anti-inflammatory activity against LPS-induced mouse RAW264.7 cells assessed as inhibition of nitric oxide production incubated for 20 mins before LPS induction by Griess method; assay type: functional, cell-based
[8] = tested on: RAW264.7; assay: Cytotoxicity against LPS-induced mouse RAW264.7 cells incubated for 18 hrs by MTT assay; assay type: cell-based; settings: RAW264.7, 18 h

Structure (SMILES) | IC50 [1] | IC50 [2] | IC50 [3] | IC50 [4] | IC50 [5] | IC50 [6] | IC50 [7] | IC50 [8]
C=C(C)CC[C@H](OC(C)=O)[C@@]1(C)C[C@@H]2OC(=O)C(=C)[C@@H]2CC1=O | 8.53 µM | 7.31 µM | 4.88 µM | 24.8 µM | 11 µM | 12 µM | 4.63 µM | 14.4 µM
C=C(C)CC[C@H](O)[C@@]1(C)C[C@@H]2OC(=O)C(=C)[C@@H]2CC1=O | 19.2 µM | 14.8 µM | 8.7 µM | 53.1 µM | 17.4 µM | 18.9 µM | 6.12 µM | 26.6 µM
C=C1C(=O)O[C@H]2C[C@@]3(C)C(=O)[C@@H]([C@@H]12)[C@](O)(CC)C[C@@H]3OCOC | 14.5 µM | 9.37 µM | 7.75 µM | 31.7 µM | 17 µM | 16.4 µM | 6.7 µM | 20.1 µM
C=C1C(=O)O[C@H]2C[C@](C)(/C=C/C(=O)CC)C(=O)C[C@@H]12 | 5.8 µM | 1.02 µM | 6.16 µM | 25.4 µM | 10.5 µM | 9.03 µM | 4.72 µM | 9.94 µM
C=C1C(=O)O[C@H]2C[C@](C)(C(=O)CC(=O)CC)C(=O)C[C@@H]12 | 21 µM | 16.4 µM | 13.7 µM | 48.6 µM | 21.9 µM | 27.2 µM | 6.99 µM | 47.2 µM
C=C1C(=O)O[C@H]2C[C@]3(C)C(=O)C=C(CC)OC3=C[C@@H]12 | 9.37 µM | 5.06 µM | 3.55 µM | 19.6 µM | 9.58 µM | 7.86 µM | 3.44 µM | 10.3 µM
C=C1C(=O)O[C@H]2C[C@]3(C)C(=O)C=C(CC)[C@@H](C3=O)[C@@H]12 | 9.94 µM | 3.8 µM | 5.55 µM | 27.2 µM | 9.65 µM | 11.6 µM | 4.26 µM | 12.2 µM
C=C1C(=O)O[C@H]2C[C@@H](C)C(=O)C[C@@H]12 | 18.3 µM | 12.6 µM | 8.58 µM | 42.6 µM | 14.9 µM | 15.7 µM | 5.82 µM | 30.6 µM
COc1cccc2c1C(=O)c1c(O)c3c(c(O)c1C2=O)C[C@@](O)(C(=O)CO)C[C@@H]3O[C@H]1C[C@H](N)[C@H](O)[C@H](C)O1 [DOXORUBICIN] | 0.18 µM |  |  | 0.57 µM |  |  |  | 
N=C(N)NN [PIMAGEDINE] |  |  |  |  |  |  | 11.9 µM | 
